Patent US20230348401A1, “Inhibitors of Glucose-6-phosphate Dehydrogenase and Uses Thereof” (The Trustees of Princeton University, priority 2020, published 2023)

Molecular target: T1, G6PD (Homo sapiens, UniProt P11413)
Assay: G6PD enzymatic activity by LC-MS (6-pg production)
Type: biochemical
Design: Partially truncated human G6PD (residues 28-515, Uniprot ID P11413); His6 with thrombin cleavage site (N, cleaved yes); made in house; host or cells: Escherichia coli BL21(DE3)pLysS
Details: orthogonal LC-MS assay
Protocol: Aliquots of reaction mixture were collected at indicated time points and rapidly quenched by diluting (1:5) into methanol precooled on dry ice. The mixtures were centrifuged at 13,000 rcf for 20 minutes at 4° C., and the resulting supernatants were diluted (1:20) into 40:40:20 methanol/ acetonitrile/ water and analyzed by LC-MS.
Target sequence in this assay (P11413 28-515): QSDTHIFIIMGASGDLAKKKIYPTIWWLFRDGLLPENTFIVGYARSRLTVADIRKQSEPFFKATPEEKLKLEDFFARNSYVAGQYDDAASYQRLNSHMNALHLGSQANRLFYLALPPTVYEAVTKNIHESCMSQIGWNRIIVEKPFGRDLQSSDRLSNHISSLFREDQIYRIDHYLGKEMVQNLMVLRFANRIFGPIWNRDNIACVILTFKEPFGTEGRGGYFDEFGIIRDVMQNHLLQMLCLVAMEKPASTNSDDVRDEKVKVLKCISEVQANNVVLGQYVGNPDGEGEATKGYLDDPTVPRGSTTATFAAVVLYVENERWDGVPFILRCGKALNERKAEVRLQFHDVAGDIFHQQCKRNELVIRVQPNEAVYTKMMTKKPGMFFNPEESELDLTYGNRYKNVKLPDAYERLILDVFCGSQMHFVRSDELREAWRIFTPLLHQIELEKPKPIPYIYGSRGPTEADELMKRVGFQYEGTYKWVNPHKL

6-pg production by recombinant human G6PD | Compound
did not | CN(c1cccc(C#N)c1)c1ncc2c(n1)CCCC2=O [neg-ctrl, 3-[methyl(5-oxo-5,6,7,8-tetrahydroquinazolin-2-yl)amino]benzonitrile]

Molecular target: T1, G6PD
Assay: 2H transfer from 1-2H-glucose to NADPH active hydride and C16:0 in HCT116 cells
Type: cell-based
Design: endogenous in cells; host or cells: HCT116
Details: 50 µM, 2 hours
Description: Direct Monitoring of NADPH Produced by the G6PD Reaction. […] NADPH production is compartmentalized, and occurs through reduction of its redox partner NADP^+. G6PD is one of the main enzymes that generates NADPH, and catalyzes the transfer of electrons (in the form of hydride) from glucose-6-phosphate to NADP^+. By installing a deuterium at the “one” position of glucose (1-^2H-glucose), the transfer of that deuterium to the active hydride of NADPH via glucose-6-phosphate can be specifically monitored. Also, a major use of cytosolic NADPH is fat synthesis. Transfer of ^2H from glucose via NADPH into free palmitate (C16:0) requires two NADPH per two-carbon unit addition during its synthesis.
Next, G6PD mediated hydride transfer to NADPH was directly monitored. Specifically, transfer of deuterium from 1-^2H-glucose, via glucose-6-phosphate, to the NADPH’s active hydride was monitored (FIG. 1B). […] The impacted step was G6PD, as no change in substrate (G6P) labeling was observed (FIG. 1E). A major use of cytosolic NADPH is fat synthesis. Transfer of ^2H from glucose via NADPH into palmitate (C16:0), which requires two NADPH per 2-carbon unit addition during its synthesis, was quantified (FIG. 1B).
For all experiments involving stable isotope tracers (e.g., 1-^2H-glucose), the isotope tracer nutrient was substituted for unlabeled nutrient at the same concentration normally found in the base media for a given cell type (e.g., DMEM for HCT116, RPMI for T cells, etc.). In addition, dialyzed FBS was used as a supplement in place of FBS.
Cytosolic NADPH sources were traced, and redox active hydride labeling was calculated, using a previously described strategy. 1-^2H-glucose (which directly traces G6PD) or 3-^2H-glucose (which directly traces PGD) were used for tracing oxPPP contribution to NADPH; 4-^2H-glucose for ME1; [2,3,3,4,4-^2H5]-glutamine, for both ME1 and IDH1; and D2O, to account for solvent exchange.
(§1) For analysis of intracellular metabolites by LC-MS, adherent cell lines were plated and grown to 80% confluency in 6-well plates. At the start of an experiment, the appropriate media was added to cells, which included isotope tracers and/or chemical inhibitors as described. Cells were incubated at 37° C. at 5% CO2 for 2 hours (unless otherwise noted). For all experiments involving small molecule agents, DMSO concentrations were <0.2%. After 2 hours, media was removed by aspiration and metabolome extraction was performed (without any wash steps) by the addition of 800 µL of ice cold solvent (40:40:20 acetonitrile:methanol:water + 0.5% formic acid). After a 1-minute incubation on ice, the extract was neutralized by the addition of NH4HCO3 (15% w/v). The samples were incubated at -20° C. for approximately 30 minutes, at which point the wells were scraped and the extract transferred to Eppendorf tubes and centrifuged (15 minutes, 16000 rpm, 4° C.). The resulting supernatant was frozen on dry ice and kept at -80° C. until LC-MS analysis.
Target sequence in this assay (P11413 whole entry): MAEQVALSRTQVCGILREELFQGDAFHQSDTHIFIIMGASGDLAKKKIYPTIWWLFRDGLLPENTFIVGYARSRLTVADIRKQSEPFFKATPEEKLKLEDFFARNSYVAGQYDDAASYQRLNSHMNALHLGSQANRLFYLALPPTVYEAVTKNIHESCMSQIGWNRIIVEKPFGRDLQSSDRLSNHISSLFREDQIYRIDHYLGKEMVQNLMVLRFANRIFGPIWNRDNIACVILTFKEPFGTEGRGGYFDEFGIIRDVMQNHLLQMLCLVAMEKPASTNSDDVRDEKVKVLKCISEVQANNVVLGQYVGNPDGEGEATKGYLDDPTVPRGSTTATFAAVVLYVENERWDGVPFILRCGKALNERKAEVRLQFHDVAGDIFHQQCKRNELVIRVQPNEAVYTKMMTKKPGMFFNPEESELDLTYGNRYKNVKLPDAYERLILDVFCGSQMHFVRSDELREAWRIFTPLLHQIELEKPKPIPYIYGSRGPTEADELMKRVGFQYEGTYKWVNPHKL

NADPH active hydride labeling | Compound
failed to decrease | OC[C@H]1O[C@@H](Oc2cc(O)cc(/C=C/c3ccc(O)cc3)c2)[C@H](O)[C@@H](O)[C@@H]1O [polydatin]

Same assay, conditions: HCT116 cells, dose-response

dose-dependent decrease in 2H transfer from 1-2H-glucose to NADPH's active hydride | Compound
not | CN(c1cccc(C#N)c1)c1ncc2c(n1)CCCC2=O [neg-ctrl, 3-[methyl(5-oxo-5,6,7,8-tetrahydroquinazolin-2-yl)amino]benzonitrile]

Molecular target: T1, G6PD
Assay: G6PD enzymatic activity by diaphorase-coupled assay
Details: not given
Target sequence in this assay (P11413 28-515): as the sequence (P11413 28-515) above

IC50 [µM] | Compound
< 1 | N#Cc1cc(Nc2ncc3c(n2)CCCCC3=O)cc(OCc2ccc(F)cc2)c1 [Compound 0076]
> 1000 | Cc1ccc(C(=O)c2cc(Cl)cc(Nc3ncc4c(n3)CCCCC4=O)c2)cc1 [Compound 0043]
< 1 | O=C1c2cnc(Nc3cccc(Cl)c3)nc2CCCC1Br (stereo not drawn) [KG-0335-0]
1 to 1000 | N#Cc1cc(Nc2ncc3c(n2)CCCc2cn[nH]c2-3)cs1 [Compound 0067]
< 1 | N#Cc1cc(Nc2ncc3c(n2)CCCC(O)C3=O)cs1 (stereo not drawn) [KG-0333-0]
< 1 | N#Cc1cc(Nc2ncc3c(n2)CCCCC3=O)cc(OCC2CC2)c1 [Compound 0097]
> 1000 | N#Cc1cc(Nc2ncc3c(n2)CCCCC3=O)cc(OCC23C[C@H]4C[C@@H](C2)C[C@@H](C3)C4)c1 [Compound 0105]
> 1000 | COC(=O)c1ccc(COc2cc(C#N)cc(Nc3ncc4c(n3)CCCCC4=O)c2)cc1 [Compound 0096]
1 to 1000 | N#Cc1cc(Nc2ncc3c(n2)CCCc2cnoc2-3)cs1 [Compound 0052]
< 1 | N#Cc1cc(Nc2ncc3c(n2)CCCC(C(F)(F)F)C3=O)cs1 (stereo not drawn) [KG-0337-0]
1 to 1000 | Cc1cccc(Nc2ncc3c(n2)CCNC3=O)c1 [KG-0055-0]
< 1 | N#Cc1cccc(Nc2ncc3c(n2)CCCCC3=O)c1F [Compound 0087]
1 to 1000 | O=C1CCCc2nc(NCc3cccnc3)ncc21 [KG-0162-0]
< 1 | N#Cc1cc(Nc2ncc3c(n2)CCCCC3=O)cc(OCc2ccccn2)c1 [Compound 0121]
> 1000 | Cc1cccc(Oc2ncc3c(n2)CCCC3=O)c1 [KG-0141-0]
< 1 | C#CCOc1cc(C#N)cc(Nc2ncc3c(n2)CCCCC3=O)c1 [Compound 0062]
< 1 | N#Cc1cc(Nc2ncc3c(n2)CCCCC3=O)cc(OCc2cnoc2)c1 [Compound 0123]
1 to 1000 | O=C1CCCCc2nc(Nc3cc(Cl)cc(C(F)(F)F)c3)ncc21 [Compound 0027]
> 1000 | Cc1cccc(Nc2ccc3c(c2)CCCC3=O)c1 [KG-0054]
1 to 1000 | CCOCCOc1cc(C#N)cc(Nc2ncc3c(n2)CCCCC3=O)c1 [Compound 0090]
1 to 1000 | N#Cc1cccc(Nc2ncc3c(n2)CCCC3O)c1 (stereo not drawn) [KG-0261-10]
< 1 | Cc1ccc(Nc2ncc3c(n2)CCCCC3=O)cc1C#N [Compound 0019]
< 1 | N#Cc1cccc(Nc2ncc3c(n2)CCCC(Br)C3=O)c1 (stereo not drawn) [KG-0334]
< 1 | C#CCCCOc1cc(C#N)cc(Nc2ncc3c(n2)CCCCC3=O)c1 [Compound 0094]
1 to 1000 | O=C1CCCc2nc(Nc3nccs3)ncc21 [KG-0214-0]
< 1 | N#Cc1cc(Nc2ncc3c(n2)CCCCC3=O)cc(OCc2ccc3c(c2)OCO3)c1 [Compound 0075]
1 to 1000 | N#Cc1cc(Nc2ncc3c(n2)CCCCC3=O)ccc1Cl [Compound 0018]
> 1000 | N#Cc1cc(Nc2ncc3c(n2)CCCCC3=O)cc(OCc2c[nH]c3ccccc23)c1 [Compound 0081]

Same assay, conditions: Normalized in vitro IC50, Table 1; diaphorase-coupled biochemical assay, normalization to an intraplate control

IC50 [µM] | Compound
1 to 1000 | O=C1CCCc2nc(Nc3cccc(-c4nnn[nH]4)c3)ncc21 [KG-0241-0]
1 to 1000 | NC(=O)c1cccc(Nc2ncc3c(n2)CCCC3=O)c1 [KG-0238-0]
< 1 | COc1cc(C#N)cc(Nc2ncc3c(n2)CCCC3=O)c1 [KG-0255-0]
< 1 | N#Cc1cc(Cl)cc(Nc2ncc3c(n2)CCCC3=O)c1 [KG-0265-0]
1 to 1000 | O=C1CCCc2nc(Nc3ccc4[nH]ccc4c3)ncc21 [KG-0168-0]
1 to 1000 | CC#Cc1cccc(Nc2ncc3c(n2)CCCC3=O)c1 [KG-0204-0]
1 to 1000 | CCNC(=O)Nc1cccc(Nc2ncc3c(n2)CCCC3=O)c1 [KG-0283-0]
1 to 1000 | O=C1CCCc2nc(Nc3ccc4cn[nH]c4c3)ncc21 [KG-0229-0]
1 to 1000 | Cc1cccc(Nc2ncc3c(n2)CCC3=O)c1 [KG-0138-0]
> 1000 | O=C(Nc1ncc2c(n1)CCCC2=O)c1ccccc1 [KG-0258-0]
< 1 | COc1cc(Cl)cc(Nc2ncc3c(n2)CCCC3=O)c1 [KG-0256-0]
> 1000 | CN(c1cccc(C#N)c1)c1ncc2c(n1)CCCC2=O [KG-0176]

Same assay, conditions: Normalized in vitro IC50, Table 1A; diaphorase-coupled biochemical assay, normalization to an intraplate control

IC50 [µM] | Compound
1 to 1000 | O=C(c1ccccc1)c1cc(Cl)cc(Nc2ncc3c(n2)CCCCC3=O)c1 [Compound 0042]
1 to 1000 | O=C1CCCCc2nc(Nc3ccc(Cl)cc3)ncc21 [Compound 0002]
1 to 1000 | CCc1ccc(Nc2ncc3c(n2)CCCCC3=O)cc1 [Compound 0006]
1 to 1000 | O=C1CCCCc2nc(Nc3ccc(SC(F)(F)F)cc3)ncc21 [Compound 0009]
1 to 1000 | COc1ccc(Nc2ncc3c(n2)CCCCC3=O)cc1 [Compound 0008]
1 to 1000 | O=C1CCCCc2nc(Nc3ccccc3Cl)ncc21 [Compound 0016]
< 1 | COc1ccc(Nc2ncc3c(n2)CCCCC3=O)cc1C#N [Compound 0020]
1 to 1000 | O=C1CCCCc2nc(Nc3ccccc3)ncc21 [Compound 0021]

Same assay, conditions: in vitro

activity against G6PD | Compound
lacked any activity against G6PD | CN(c1cccc(C#N)c1)c1ncc2c(n1)CCCC2=O [neg-ctrl, 3-[methyl(5-oxo-5,6,7,8-tetrahydroquinazolin-2-yl)amino]benzonitrile]

Molecular target: T1, G6PD
Assay: 6-pg levels in HepG2 cells (cellular target engagement)
Type: cell-based
Design: endogenous in cells
Details: 50 µM, 2 hours
Description: Direct Monitoring of 6-pg in cells. The metabolite 6-phosphogluconate (6-pg) is a downstream product of the G6PD reaction, and is believed to be made predominantly by the oxidative pentose phosphate pathway in mammalian cells. Though the direct product of G6PD is the lactone form of 6-pg (6-phosphogluconolactone), this product is believed to readily hydrolyze to 6-pg under cellular conditions, and is therefore difficult to detect. Thus, to directly monitor the G6PD reaction, methods for measuring 6-pg levels in intact cells were developed.
To explore this possibility further, more specific assays for evaluating G6PD cellular target engagement were developed. […] These included the hepatocellular carcinoma line, HepG2, which was selected as the primary cell for direct 6-pg monitoring. Consistent with the oxPPP being the primary source of 6-pg in these cells, G6PD knockout led to nearly complete 6-pg loss (FIGS. 1B and 1C).
as §1
Metabolites were analyzed using a quadrupole-orbitrap mass spectrometer (Q Exactive Plus, Thermo Fisher Scientific, Waltham, MA), coupled to hydrophilic interaction chromatography (HILIC) with LC separation on a XBridge BEH Amide column (Waters), or a stand-alone orbitrap (Thermo-Fisher Exactive) coupled to reversed-phase ion-pairing chromatography with LC separation on a HSS-T3 column (Waters). Both mass spectrometers were operating in negative ion mode and were coupled to their respective liquid chromatography methods via electrospray-ionization. Detailed analytical conditions have been previously described.
Target sequence in this assay (P11413 whole entry): as the sequence (P11413 whole entry) above

6-pg levels | Compound
failed to decrease | OC[C@H]1O[C@@H](Oc2cc(O)cc(/C=C/c3ccc(O)cc3)c2)[C@H](O)[C@@H](O)[C@@H]1O [polydatin]

Same assay, conditions: HepG2 cells, dose-response

dose-dependent decrease in 6-pg levels | Compound
not | CN(c1cccc(C#N)c1)c1ncc2c(n1)CCCC2=O [neg-ctrl, 3-[methyl(5-oxo-5,6,7,8-tetrahydroquinazolin-2-yl)amino]benzonitrile]
